According to PMC2801547 (Journal of medicinal chemistry, 2009):

Tests used:
several tumor cell lines = conditions: cited from earlier work
[1] = cited from earlier work
[2] = tested on: WiDr colorectal adenocarcinoma cells; test: cells; conditions: Homo sapiens, 72 h
[3] = tested on: panel of human cancer cell lines; conditions: read-out: IC50 in all cell lines tested; all tumor lines examined; cited from earlier work
[4] = tested on: pTN24 dual-reporter splicing construct in 293T cells; test: Dual-reporter cell-based splicing assay; conditions: 5 hours treatment
[5] = NOD/SCID mice, 5-50 mg/kg daily for five days, IV and IP, day 5
[6] = tested on: normal human foreskin fibroblasts (HFF); test: cells; conditions: Fibroblast, 72 h
[7] = tested on: JeKo-1 mantle cell lymphoma tumors; conditions: JeKo-1 tumor-bearing mice, Supplemental Figure S2

SMILES: CC(=O)O[C@@H](C)/C=C\C(=O)N[C@@H]1C[C@H](C)[C@H](C/C=C(C)/C=C/[C@H]2O[C@](C)(O)C[C@@]3(CO3)[C@@H]2O)O[C@@H]1C [compound 1]
- cytotoxicity IC50s (several tumor cell lines; several tumor cell lines): low nanomolar range
- GI50s (several tumor cell lines; several tumor lines): single-digit nanomolar range

SMILES: CC[C@H](O)[C@@H](C)[C@H]1O[C@@H]1C[C@@](C)(O)/C=C/C=C(\C)[C@H]1OC(=O)C[C@H](O)CC[C@@](C)(O)[C@@H](OC(=O)N2CCN(C3CCCCCC3)CC2)/C=C/[C@@H]1C [compound 2]
- activity relative to pladienolide B [1]: four-fold less active than pladienolide B

SMILES: CC(=O)O[C@@H](C)/C=C\C(=O)N[C@H]1CC[C@@H](C/C=C(C)/C=C/[C@@H]2C[C@]3(CO3)CC(C)(C)O2)CC1 [compound 3a]
- IC50 [2]: 2 µM
- IC50 [3]: < 5 µM

SMILES: CC(/C=C/[C@@H]1C[C@]2(CO2)CC(C)(C)O1)=C\C[C@H]1CC[C@@H](NC(=O)/C=C\[C@H](C)O)CC1 [compound 4]
- effect on splicing (ratio of luciferase to β-galactosidase activity) [4]: altered splicing only very slightly at the highest concentration tested

SMILES: CC(/C=C/[C@@H]1C[C@]2(CO2)CC(C)(C)O1)=C\C[C@H]1CC[C@@H](NC(=O)/C=C\[C@H](C)OC(=O)C(C)C)CC1 [compound 5, (S,Z)-5-((1R,4R)-4-((2E,4E)-5-((3R,5S)-7,7-dimethyl-1,6-dioxaspiro[2.5]octan-5-yl)-3-methylpenta-2,4-dienyl)cyclohexylamino)-5-oxopent-3-en-2-yl isobutyrate]
- blood cell counts (CBC) versus vehicle-only mice [5]: No significant differences in blood cell counts
- IC50 [6]: > 10 µM

SMILES: CC(/C=C/[C@@H]1C[C@]2(CO2)CC(C)(C)O1)=C\C[C@H]1OC[C@@H](NC(=O)/C=C\[C@H](C)OC(=O)C(C)C)CO1 [compound 26, (S,Z)-5-((2R,5R)-2-((2E,4E)-5-((3R,5S)-7,7-dimethyl-1,6-dioxaspiro[2.5]octan-5-yl)-3-methylpenta-2,4-dienyl)-1,3-dioxan-5-ylamino)-5-oxopent-3-en-2-yl isobutyrate]
- in vivo anti-cancer activity [7]: robust anti-cancer activity that was comparable to compound 5
- effect on splicing (ratio of luciferase to β-galactosidase activity) [4]: selectively inhibit splicing

SMILES: CC(=O)N[C@H]1CO[C@@H](C/C=C(C)/C=C/[C@@H]2C[C@]3(CO3)CC(C)(C)O2)OC1 [compound 27, N-((2s,5R)-2-((2E,4E)-5-((3R,5S)-7,7-dimethyl-1,6-dioxaspiro[2.5]octan-5-yl) -3-methylpenta-2,4-dienyl)-1,3-dioxan-5-yl)acetamide]
- effect on splicing (ratio of luciferase to β-galactosidase activity) [4]: had no effect
